This is an account of results in US10364277B2, “Diagnosis and treatment of autoimmune diseases” (NewSouth Innovations Pty Limited, priority 2013, dated 2019).

The subject of assay [1] is T cells of patients with AS. The settings on record: known from Kuon et al. 1997; cited from earlier work.
Assay [2] deals with HLAB*2705 (Homo sapiens, UniProt P01889, D138H/D201E/E176V/E204Q/G107R/H137Y/K202T/N104T/N87E/Q56L/Q94K/R106L/R155S/R180L/S101D/S121N/S48T/Y140D/Y33H/Y91C). The assay is described as follows: REVEAL MHC-peptide binding assay. The settings on record: for % Positive Control: REVEAL binding score relative to positive control peptide, pass threshold ≥45%.
The subject of assay [3] is Lewis rats. The assay is described as follows: Immunization of Lewis rats with peptide in CFA (uveitis/arthritis). The assay is classed as in vivo, rat. The settings on record: for Arthritis Total / Arthritis day 25 / incidence / histol Average: 50 μg peptide/animal; for clin uveitis: 6 Lewis rats, 50 μg peptide/animal s.c. in CFA; for incidence: eyes with histological findings / eyes scored; for animals immunised that developed arthritis: groups of 6 animals, not HLA-B27 transgenics; for histol Average: histological uveitis score of eyes. Further details: histol Average / Arthritis Total: scale not given here. The method, then: Animals: Lewis rats, age 6 weeks,
Peptides were emulsified (sonification) in CFA (50:50, CFA:Peptid) supplemented with M Tuberculosis H37RA (BD, Heidelberg, Germany) to a final concentration of 2.5 mg/ml
Peptide is injected s.c. in both hindlegs, 50 μg peptide/200 μl emulsion, 100 μl/leg,
Group size: 6 animals, 3 groups
7 days post immunization animals were examined daily (eyes and feet)
Eyes were embedded in tissue tec and frozen at −80 degree.
8 μm cryo section were stained with hematoxilin and graded.

Assay [4] concerns Rats. The assay is described as follows: Induction of oral tolerance in rats. The assay is classed as in vivo, rat. The settings on record: for affected joints / average score/animal / incidence: 4 rats.
The test system of assay [5] is PBMC. The assay is described as follows: Ex vivo IFN-γ EliSpot assay. The settings on record: for IFN-γ response to individual peptide compared to the controls: one HLA B27 subject of 2 (B27004, B27007), p<0.001.
[6] abbreviates: PBS-fed 3 x, immunized with 100 μg peptide.
The mark [7] stands for this setting: fed 200 μg peptide 3 x, immunized with 100 μg of the same peptide.

Entries after “also recorded” stand apart in the source; their conditions may differ. Marks after values point to notes of the source that are not given here. Ends that are not written are not given here.

As for “8 (DRASFIKNL; Collagen peptide fragment) [Peptide 8]”, in assay [1], the “stimulation of T cells of patients with AS” value is given as “stimulate T cells of patients with AS”. For the same molecule, the “% Positive Control” value in assay [2] was 0.04%.

On to “9 (SRHHAFCFR; Aggrecan peptide fragment) [Peptide 9]”, for which the “stimulation of T cells of patients with AS” value in assay [1] is “stimulate T cells of patients with AS”. Besides, in assay [2], the “% Positive Control” value turned out to be 0.02%.

10 (ARGQPGVMG) [Peptide 10]: the “% Positive Control” value in assay [2] worked out at 1.06%.

ARKLLLDNL [Peptide P2]: in assay [3], the “Arthritis Total” value amounted to 8, the clin uveitis is recorded as 0, the “Arthritis day 25” value turned out to be 8 and the incidence is 5/11*. For the same molecule, in assay [3], the “animals immunised that developed arthritis” value is 5/6 and the “histol Average” value was found to be 0.181. In assay [4] (setting [6]), the affected joints came out at 3, the average score/animal is on record as 1.875 and the incidence is listed as 2/4. Moreover, in assay [4] (setting [7]), the average score/animal was determined as 3.25 and the incidence was 1/4. In addition, the histological score in assay [4] (left eye of rat 1-3, PBS-fed, imm. P2D6) is given as 2-3. In assay [2], the “% Positive Control” value is 5.26%.

Take “KRFNALQYL [human lumican residues 226-234]”: in assay [3], the “Arthritis Total” value amounted to 3, the clin uveitis was 0, the “Arthritis day 25” value amounted to 0 and the incidence is given as 3/12. For the same molecule, the “histol Average” value in assay [3] was 0.125. The “% Positive Control” value in assay [2] is 0.24%. In addition, the “binding relative to the positive control peptides” value in assay [2] (in vitro MHC-peptide binding assay, HLA-B2705) is listed as “significant binding”.

For KRLAETLAL [compound 1, KRLAETLAL], in assay [2], the “% Positive Control” value is listed as 105.51%.

For the molecule “LQNNLIETI (Fragment of keratocan protein)”, the “IFN-γ response to individual peptide compared to the controls” value (shortened to “IFN-γ response … compared to the controls”) in assay [5] is reported as “significant increase in response”.

Regarding LQYLRLSHN, the “IFN-γ response … compared to the controls” value in assay [5] is reported as “significant increase in response”.

Consider NRFSVAYML [Peptide P3], for which, in assay [3], the “Arthritis Total” value is 4, the clin uveitis is 0, the “Arthritis day 25” value is 2 and the incidence is 2/12. Also, in assay [3], the “histol Average” value is listed as 0.083. In assay [4] (setting [6]), the affected joints is listed as 10, the average score/animal was 2.75-3.00 and the incidence is reported as 3/4. Also, in assay [4] (compared with P2), the “induction of oral tolerance” value is reported as “induces oral tolerance more effectively than P2”. Moreover, in assay [4] (setting [7]), the affected joints was 0, the average score/animal came to 0 and the incidence was 0/4. Also, the “development of arthritis or uveitis” value in assay [4] (rats fed with P3 and immunized with P3) was “None of the rats fed with P3 and immunized with P3 developed arthritis or uveitis; also recorded: None of the animals who received P3 had evidence of arthritis or uveitis”. Also, in assay [2], the “% Positive Control” value came to 0.00%.

As for “QLEDIRLDG (A second opticin protein fragment)”, the “IFN-γ response … compared to the controls” value in assay [5] is “significant increase in response”.

B1: Lumican: whole recombinant human lumican (protein, UniProt P51884 19-338, looked up)
Lumican: QYYDYDFPLSIYGQSSPNCAPECNCPESYPSAMYCDELKLKSVPMVPPGIKYLYLRNNQIDHIDEKAFENVTDLQWLILDHNLLENSKIKGRVFSKLKQLKKLHINHNNLTESVGPLPKSLEDLQLTHNKITKLGSFEGLVNLTFIHLQHNRLKEDAVSAAFKGLKSLEYLDLSFNQIARLPSGLPVSLLTLYLDNNKISNIPDEYFKRFNALQYLRLSHNELADSGIPGNSFNVSSLVELDLSYNKLKNIPTVNENLENYYLEVNQLEKFDIKSFCKILGPLSYSKIKHLRLDGNRISETSLPPDMYECLRVANEVTLN
As to B1, the “animals immunised that developed arthritis” value in assay [3] is “all developed arthritis”. Moreover, in assay [5] (HLA B27 AU patients), the “patients demonstrating increased IFN-γ production” value is listed as 8 of 10. Besides, the “Interferon gamma response, Patients (N = 10)” value in assay [5] (number of HLA B27 AU patients responding, PBMC, 24 hours) came out at 8. Moreover, the “Interferon gamma response, Controls (N-6)” value in assay [5] (number of healthy controls responding, PBMC, 24 hours) is given as 2. The “IFN-γ response of HLA B27 AU patients vs average of healthy controls” value in assay [5] (ten patients vs controls n=6, one way ANOVA, Bonferroni, lumican 2.5 μg/mL) is “significant difference”.
